Source: PubChem BioAssay (NCI)
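These data come from cells grown in 96-well plates and exposed to compound for 48 hours at five concentrations. The concentration for 50% growth inhibition is given as GI50. TGI denotes the concentration required for complete inhibition of growth.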

Assays:
Experiment in all cases: inhibition of tumour cell growth, NCI panel, 48 h
[1] = tested on: OVCAR-3 ovarian
[2] = tested on: NCI-H522 lung
[3] = tested on: HCT-116 colon
[4] = tested on: UACC-62 melanoma
[5] = tested on: BT-549 breast
[6] = tested on: TK-10 renal
[7] = tested on: OVCAR-5 ovarian
[8] = tested on: MCF7 breast
[9] = tested on: HS 578T breast
[10] = tested on: A498 renal
[11] = tested on: UACC-257 melanoma
[12] = tested on: RXF 393 renal
[13] = tested on: 786-0 renal
[14] = tested on: MOLT-4 leukemia
[15] = tested on: LOX IMVI melanoma
[16] = tested on: SNB-19 CNS
[17] = tested on: SK-OV-3 ovarian
[18] = tested on: HT29 colon
[19] = tested on: IGROV1 ovarian
[20] = tested on: NCI/ADR-RES ovarian
[21] = tested on: HCT-15 colon
[22] = tested on: MDA-MB-435
[23] = tested on: M14 melanoma
[24] = tested on: NCI-H460 lung
[25] = tested on: CCRF-CEM leukemia
[26] = tested on: T-47D breast
[27] = tested on: EKVX NSCLC
[28] = tested on: ACHN renal
[29] = tested on: PC-3 prostate
[30] = tested on: CAKI-1 renal
[31] = tested on: SW-620 colon
[32] = tested on: HL-60(TB) leukemia
[33] = tested on: SN12C renal
[34] = tested on: SK-MEL-28 melanoma
[35] = tested on: SK-MEL-2 melanoma
[36] = tested on: OVCAR-8 ovarian
[37] = tested on: NCI-H226 lung
[38] = tested on: MDA-MB-231 breast
[39] = tested on: K-562 leukemia
[40] = tested on: NCI-H23 lung
[41] = tested on: SF-539 CNS
[42] = tested on: HCC-2998 colon
[43] = tested on: COLO 205 colon
[44] = tested on: OVCAR-4 ovarian
[45] = tested on: RPMI-8226 leukemia
[46] = tested on: SF-268 CNS
[47] = tested on: U251 CNS
[48] = tested on: SNB-75 CNS
[49] = tested on: SF-295 CNS
[50] = tested on: MALME-3M melanoma
[51] = tested on: A549 NSCLC
[52] = tested on: HOP-62 NSCLC
[53] = tested on: MDA-N
[54] = tested on: DU-145 prostate
[55] = tested on: KM12 colon
[56] = tested on: HOP-92 NSCLC
[57] = tested on: SK-MEL-5 melanoma
[58] = tested on: UO-31 renal

Question: What does the source list for `O=C(c1ccc(Cl)c(Cl)c1)N1CCN(C(=O)c2ccc(Cl)c(Cl)c2)C1=S`?
Answer: GI50 [1]: 17.1 µM; TGI [1]: 35.2 µM; GI50 [2]: 6.14 µM; TGI [2]: 25 µM; GI50 [3]: 18.1 µM; TGI [3]: 32.8 µM; GI50 [4]: 18.1 µM; TGI [4]: 34.4 µM; GI50 [5]: 23.6 µM; TGI [5]: 48 µM; GI50 [6]: 18.5 µM; TGI [6]: 36.5 µM; GI50 [7]: 24.3 µM; TGI [7]: 51.3 µM; GI50 [8]: 5.57 µM; TGI [8]: 36.4 µM; GI50 [9]: 29.1 µM; TGI [9]: > 100 µM; GI50 [10]: 20.2 µM; TGI [10]: 36 µM; GI50 [11]: 17.3 µM; TGI [11]: 35.6 µM; GI50 [12]: 17.8 µM; TGI [12]: 35.8 µM; GI50 [13]: 7.16 µM; TGI [13]: 20.5 µM; GI50 [14]: 15.7 µM; TGI [14]: 36.3 µM; GI50 [15]: 7.63 µM; TGI [15]: 24.2 µM; GI50 [16]: 21.4 µM; TGI [16]: 40.7 µM; GI50 [17]: 18.2 µM; TGI [17]: 33.9 µM; GI50 [18]: 24.2 µM; TGI [18]: 53 µM; GI50 [19]: 19.7 µM; TGI [19]: 36.3 µM; GI50 [20]: 34.4 µM; TGI [20]: > 100 µM; GI50 [21]: 19.6 µM; TGI [21]: 43.7 µM; GI50 [22]: 15.4 µM; TGI [22]: 31.3 µM; GI50 [23]: 19.6 µM; TGI [23]: 37.9 µM; GI50 [24]: 22 µM; TGI [24]: 49.4 µM; GI50 [25]: 4.47 µM; TGI [25]: 18.7 µM; GI50 [26]: 17.5 µM; TGI [26]: 73.6 µM; GI50 [27]: 20.8 µM; TGI [27]: 38.4 µM; GI50 [28]: 19.2 µM; TGI [28]: 34.4 µM; GI50 [29]: 16.7 µM; TGI [29]: 31.7 µM; GI50 [30]: 14 µM; TGI [30]: 27.1 µM; GI50 [31]: 21.3 µM; TGI [31]: 52.1 µM; GI50 [32]: 12.7 µM; TGI [32]: 31.3 µM; GI50 [33]: 18.3 µM; TGI [33]: 43.9 µM; GI50 [34]: 30.6 µM; TGI [34]: 69.8 µM; GI50 [35]: 18.4 µM; TGI [35]: 33.9 µM; GI50 [36]: 19 µM; TGI [36]: 34.1 µM; GI50 [37]: 19 µM; TGI [37]: 37.4 µM; GI50 [38]: 18.8 µM; TGI [38]: 33.3 µM; GI50 [39]: 16.3 µM; TGI [39]: 60 µM; GI50 [40]: 22 µM; TGI [40]: 43 µM; GI50 [41]: 15.1 µM; TGI [41]: 29.9 µM; GI50 [42]: 19.9 µM; TGI [42]: 42.9 µM; GI50 [43]: 17.8 µM; TGI [43]: 33.6 µM; GI50 [44]: 16.8 µM; TGI [44]: 31.4 µM; TGI [45]: 5.6 µM; GI50 [46]: 16.8 µM; TGI [46]: 47.9 µM; GI50 [47]: 16.4 µM; TGI [47]: 29.9 µM; GI50 [48]: 18.9 µM; TGI [48]: 36.4 µM; GI50 [49]: 18.5 µM; TGI [49]: 39.7 µM; GI50 [50]: 14.9 µM; TGI [50]: 30.6 µM; GI50 [51]: 27.8 µM; TGI [51]: 68.9 µM; GI50 [52]: 17.6 µM; TGI [52]: 42.8 µM; GI50 [53]: 18.3 µM; TGI [53]: 38.4 µM; GI50 [54]: 14.7 µM; TGI [54]: 29 µM; GI50 [55]: 16.1 µM; TGI [55]: 33.1 µM; GI50 [56]: 20 µM; TGI [56]: 34.2 µM

Question: With `COC(=O)Cc1cc2c(cc1C(=O)c1ccc(N)cc1)OCO2` as the compound, how does the TGI [1] read?
Answer: 6.99 µM

Question: What about the TGI [2] of the same compound?
Answer: 1.01 µM

Question: And the TGI [3]?
Answer: > 45.9 µM

Question: What about the TGI [4] of the same compound?
Answer: > 55 µM

Question: And the TGI [5]?
Answer: > 20.3 µM

Question: And the TGI [57]?
Answer: 4.49 µM

Question: What about the TGI [6] of the same compound?
Answer: > 100 µM

Question: What about the TGI [58] of the same compound?
Answer: > 100 µM

Question: And the TGI [7]?
Answer: 83.3 µM

Question: And the TGI [8]?
Answer: > 100 µM

Question: And the TGI [9]?
Answer: > 25.4 µM

Question: And the TGI [10]?
Answer: > 27.4 µM

Question: What about the TGI [11] of the same compound?
Answer: > 100 µM

Question: And the TGI [12]?
Answer: > 23.9 µM

Question: And the TGI [13]?
Answer: > 100 µM

Question: What about the TGI [14] of the same compound?
Answer: 33.8 µM

Question: What about the TGI [15] of the same compound?
Answer: > 100 µM

Question: And the TGI [16]?
Answer: > 82.8 µM

Question: What about the TGI [17] of the same compound?
Answer: > 29.2 µM

Question: What about the TGI [18] of the same compound?
Answer: 3.99 µM

Question: And the TGI [19]?
Answer: 13 µM

Question: What about the TGI [20] of the same compound?
Answer: 15.3 µM

Question: And the TGI [21]?
Answer: > 37.7 µM

Question: What about the TGI [22] of the same compound?
Answer: 0.667 µM

Question: What about the TGI [23] of the same compound?
Answer: > 100 µM

Question: What about the TGI [24] of the same compound?
Answer: > 100 µM

Question: What about the TGI [25] of the same compound?
Answer: 8 µM

Question: What about the TGI [26] of the same compound?
Answer: > 100 µM

Question: And the TGI [27]?
Answer: > 100 µM

Question: And the TGI [28]?
Answer: > 100 µM

Question: And the TGI [29]?
Answer: > 27.2 µM

Question: And the TGI [30]?
Answer: > 100 µM

Question: And the TGI [31]?
Answer: > 100 µM

Question: And the TGI [32]?
Answer: > 26.2 µM

Question: And the TGI [33]?
Answer: > 100 µM

Question: And the TGI [34]?
Answer: > 100 µM

Question: What about the TGI [35] of the same compound?
Answer: 5.36 µM

Question: What about the TGI [36] of the same compound?
Answer: > 34.5 µM

Question: What about the TGI [37] of the same compound?
Answer: > 100 µM

Question: What about the TGI [38] of the same compound?
Answer: > 30.9 µM

Question: And the TGI [39]?
Answer: > 100 µM

Question: And the TGI [40]?
Answer: > 100 µM

Question: What about the TGI [41] of the same compound?
Answer: > 27.2 µM

Question: What about the TGI [42] of the same compound?
Answer: 3.58 µM

Question: And the TGI [43]?
Answer: 10 µM

Question: What about the TGI [44] of the same compound?
Answer: > 100 µM

Question: What about the TGI [45] of the same compound?
Answer: 6.08 µM

Question: What about the TGI [46] of the same compound?
Answer: > 30.7 µM

Question: And the TGI [47]?
Answer: > 100 µM

Question: And the TGI [48]?
Answer: 5.84 µM

Question: What about the TGI [49] of the same compound?
Answer: 5.33 µM

Question: And the TGI [50]?
Answer: > 100 µM

Question: What about the TGI [51] of the same compound?
Answer: > 77.8 µM

Question: And the TGI [52]?
Answer: > 100 µM

Question: And the TGI [53]?
Answer: 1.43 µM

Question: And the TGI [54]?
Answer: > 39.1 µM

Question: What about the TGI [55] of the same compound?
Answer: > 100 µM

Question: What about the TGI [56] of the same compound?
Answer: 61 µM
